How the values were obtained:
male mice of dd-strain = assay type: in vivo; settings: death of animals 72 hours following administration
Procedure: Each test compound suspended in 0.5% tragacanth-saline was administered intraperitoneally or orally to male mice of dd-strain(body weight 16-24 g). The lethal dose was estimated from the death of animals 72 hours following administration.

writhing syndrome = assay: Analgetic activity (acetic acid writhing syndrome); assay type: in vivo, mouse (dd-strain); settings: Mus musculus, 1 h; oral, mice, 0.6% acetic acid i.p. one hour later; Litchfield-Wilcoxon; read-out: analgetic effect ED50 (95% C.L.)
Procedure: Each test compound suspended in 0.5% tragacanth-saline was orally administered to dd-strain mice(body weight: 18-20 g). After one hour 0.6% acetic acid solution was injected intraperitoneally in a volume of 0.1 ml/10 g.

[1] = test system: carrageenin-induced leakage of the pigment, dorsal skin; assay: Anti-inflammatory activity for topical route (carrageenin, leakage of pigment in dorsal skin); assay type: in vivo, rat (Wistar-strain); settings: 1% in polyethylene glycol 300, percent inhibition divided by that of ibuprofen
Procedure: The dorsal skin of male rats of Wistar-strain(body weight: about 100 g) were depilated. Carrageenin suspension was injected intra-dermally at a dose of 250 γ/0.05 ml/site. […] Immediately after injection, the filter paper containing 125.2±18.0 mg of the polyethylene glycol was applied on the injected site. After 3 hours, 1% pontamine sky blue solution was injected intravenously at a dose of 0.5 ml/kg. After further 3 hours, the animals were sacrificed and their dorsal skin were removed to measure the area of leakage of the pigment. The percent inhibition was determined with respect to the results for the control animals.

carrageenin edema = assay: Anti-inflammatory activity for oral route (carrageenin edema, hind paw); assay type: in vivo, rat (Wistar-strain); settings: percent inhibition divided by that of ibuprofen, carrageenin edema after 3 hours; for anti-inflammatory effect, oral, 10 mg/kg (relative inhibition, ibuprofen = 1.0): 10 mg/kg oral; for anti-inflammatory effect, oral, 50 mg/kg (relative inhibition, ibuprofen = 1.0): 50 mg/kg oral
Procedure: After 30 minutes 0.5-1.0% carrageenin suspended in the water for injection was injected subcutaneously to a hind paw. After 3 hours the carrageenin edema was measured by volume, and the percent inhibition was determined with respect to the results for the control animals.

Structure (SMILES) | acute toxicity, oral (lethal dose) (male mice of dd-strain) [mg/kg] | ED50 (writhing syndrome) [mg/kg] | anti-inflammatory effect, topical (relative inhibition, ibuprofen = 1.0) [1] | anti-inflammatory effect, oral, 10 mg/kg (relative inhibition, ibuprofen = 1.0) (carrageenin edema) | anti-inflammatory effect, oral, 50 mg/kg (relative inhibition, ibuprofen = 1.0) (carrageenin edema)
COCCOC(=O)C(C)c1ccc(CC(C)C)cc1 (stereo not drawn) [Compound 14] | 1000 to 2000 | 406 | 1.2 | 0.4 | 1.2
CCOCCOC(=O)C(C)c1ccc(CC(C)C)cc1 (stereo not drawn) [Compound 15] | > 2000 | 156 | 1.2 | 0.7 | 0.9
CC(C)Cc1ccc(C(C)C(=O)OCCOCCO)cc1 (stereo not drawn) [Compound 16] | > 2000 | 151 | 2.3 |  | 0.9
CC(=O)OCCOC(=O)C(C)c1ccc(CC(C)C)cc1 (stereo not drawn) [Compound 18] | > 2000 | 308 | 2.2 | 0.7 | 1.1
CCOC(=O)COC(=O)C(C)c1ccc(CC(C)C)cc1 (stereo not drawn) [Compound 19] | > 2000 | 180 | 1.9 | 0.5 | 0.7

From patent US4150137A, “Pyridylalkyl esters of 2-(p-isobutylphenyl)acetic acid and propionic acids and use” (Hisamitsu Pharmaceutical Co. Inc., priority 1975, dated 1979)
